# “Also recorded” adds a separate entry of the source.
# What was measured:
# Format in all cases: in vivo, human
# serpinB2 protein = assay: ELISA for serpinB2 protein levels in bronchoalveolar lavage; settings: Post-fluticasone (follow-up bronchoscopy, 1 week)
# Text: Periostin and serpin B2 have not previously been associated with asthma, and we examined their expression at the protein level. […] However, in asthmatics, serpinB2 levels increased in all subjects at the second bronchoscopy (Table 4s, supplementary appendix). The increase in serpinB2 at the second bronchoscopy likely reflects a pro-coagulation response to the minor bleeding that accompanied bronchial biopsy during the first bronchosocopy. ELISA for serpinB2 protein levels in bronchoalveolar lavage fluid was performed using a commercially available kit (Imubind PAI-2 ELISA, American Diagnostica Inc, Stamford Conn.) according to the manufacturer's directions.
# [1] = Lung function (FEV1) in the clinical trial; settings: by one week, sustained at 4 weeks and 8 weeks; inhaled fluticasone 500 μg twice daily
# Method: In three cross sectional studies and a clinical trial, epithelial brushings were collected by bronchoscopy from 42 subjects with asthma, 16 current smokers without asthma, and 28 healthy controls. Cross-sectional studies comprised 2 visits, the first for characterization and the second for bronchoscopy. The clinical trial was a 10 week, randomized, double-blind, placebo-controlled trial specifically designed to determine the effects of inhaled fluticasone (500 μg twice daily) on airway gene expression and to relate gene expression changes to improvements in lung function (FIG. 1). Bronchoscopy was performed at baseline and repeated 1 week after starting study drug. Thirty-five subjects had adequate baseline bronchoscopy and 32 had RNA available from epithelial brushings at both bronchoscopies. Lung function was measured at intervals over the 8-week treatment period. […] Spirometry was measured at baseline, before both bronchoscopies, at 4 and 8 weeks after starting study medication, and after the one week run-out according to American Thoracic Society criteria using a dry rolling-seal spirometer (Model VRS2000, PDS Instrumentation, S&M Instrument Co., Doylestown, Pa.). Methacholine responsiveness was measured at baseline and at 4 and 8 weeks after starting study medication using a five-breath dosimeter method (modified from Chai et al).^5
# [2] = Methacholine responsiveness (PC20) in the clinical trial; settings: 4 and 8 weeks
# Method: Protocol: This was a 6 visit, 10 week, randomized, double-blind, placebo-controlled trial specifically designed to determine the effects of inhaled fluticasone on airway gene expression and to relate those gene expression changes to improvements in lung function. After a one-week run-in/characterization period, subjects were randomized to receive 2 puffs BID of fluticasone propionate (250 μg/puff) or matching placebo for 8 weeks, followed by a one week run-out. Subjects were randomized in blocks designed to yield a greater number of subjects randomized to fluticasone as compared to placebo in order to maximize our ability to relate gene expression to lung function improvements within the intervention group. […] Spirometry was measured at baseline, before both bronchoscopies, at 4 and 8 weeks after starting study medication, and after the one week run-out according to American Thoracic Society criteria using a dry rolling-seal spirometer (Model VRS2000, PDS Instrumentation, S&M Instrument Co., Doylestown, Pa.). Methacholine responsiveness was measured at baseline and at 4 and 8 weeks after starting study medication using a five-breath dosimeter method (modified from Chai et al).^5
# Periostin = Periostin immunohistochemistry in bronchial biopsies with design-based stereology; settings: one week of treatment with fluticasone
# Text: Periostin protein expression was confirmed by immunohistochemistry in bronchial biopsies from a subset of asthmatic and healthy control subjects. Periostin immunolocalized to the subepithelium in all subjects, and quantification confirmed increased expression in asthma (FIG. 3). The degree of immunostaining in asthmatics was not decreased by one week of treatment with fluticasone (FIG. 6, supplementary appendix). Paraffin-embedded sections were deparaffinized and re-hydrated to water. Next, all sections were incubated in 3% hydrogen peroxide/absolute methanol for 10 minutes to block endogenous peroxidase activity. […] Biopsies were formalin-fixed and paraffin-embedded and then analyzed using methods of tissue immunohistochemistry (described above) and design-based stereology.^6 First, the volume of immunohistochemical staining, the volume of submucosal tissue surveyed, and the surface area of the epithelial basal lamina surveyed were determined by point and intersection counting using an integrated microscope (Olympus; Albertslund, Denmark), video camera (JVC Digital Color, JVC A/S; Tatstrup, Denmark), automated microscope stage, and computer (Dell Optiplex GS270 PC running Computer-Assisted Stereology Toolbox [C.A.S.T.] […] Points overlying submucosal tissue that is immunostained and unstained were counted separately along with intersections of test lines with basal lamina. […]
smiles,measurement,setting,value
"CCC(=O)O[C@]1(C(=O)SCF)[C@H](C)C[C@H]2[C@@H]3C[C@H](F)C4=CC(=O)C=C[C@]4(C)[C@@]3(F)[C@@H](O)C[C@@]21C [fluticasone, fluticasone propionate]","SerpinB2 protein levels in bronchoalveolar lavage, Mean",serpinB2 protein,0.91 ng/mL
same,Improvement in FEV1 versus placebo,[1],greater improvements in FEV1 than placebo
same,"PC20 methacholine improvements, fluticasone versus placebo",[2],not statistically different; also recorded: no statistically significant differences
same,Degree of periostin immunostaining in bronchial biopsies of asthmatics,Periostin,not decreased

# — US20070275925A1, “ASTHMA DIAGNOSIS AND THERAPY” (REGENTS OF THE UNIVERSITY OF CALIFORNIA, priority 2006, published 2007)
